Measured values taken from patent US4108986A, “N^2 -Arylsulfonyl-L-argininamides and the pharmaceutically acceptable salts thereof” (Mitsubishi Chemical Industries Limited, priority 1974, dated 1978).

Target: T1, thrombin (Bos taurus, UniProt P00735)
T1 construct: purchased Mochida Pharmaceutical Co., Ltd
Assay: fibrinogen coagulation time (thrombin added to bovine fibrinogen solution)
Type: biochemical
Conditions: thrombin 5 units/ml, borate saline buffer pH 7.4, 25° C, normal coagulation time 50-55 seconds prolonged to 100-110 seconds
Method: The measurement of the fibrinogen coagulation time was conducted as follows:
Immediately after mixing, the reaction mixture was transferred from the ice bath to a bath maintained at 25° C. Coagulation times were taken as the period between the time of transference to the 25° C bath and the time of the first appearance of fibrin threads.
The term "concentration required to prolong the coagulation time by a factor of two" is the concentration of an active ingredient required to prolong the normal coagulation time 50-55 seconds to 100-110 seconds.

| SMILES | Concentration required to prolong the coagulation time by a factor of two |
| --- | --- |
| COCCN(C(=O)[C@H](CCCNC(=N)N)NS(=O)(=O)c1ccc2cc(OC)c(OC)cc2c1)[C@@H](C)C(=O)O [compound 15, N^2-(6,7-dimethoxy-2-naphthylsulfonyl)-L-arginyl-N-(2-methoxyethyl)alanine] | 5 µM |
| COc1ccc2cc(S(=O)(=O)N[C@@H](CCCNC(=N)N)C(=O)N(CC3CCCCC3)[C@@H](C)C(=O)O)cc(OC)c2c1 [compound 12, N^2-(4,6-dimethoxy-2-naphthylsulfonyl)-L-arginyl-N-cyclohexylmethylalanine] | 4.5 µM |
| COc1cc2ccc(S(=O)(=O)N[C@@H](CCCNC(=N)N)C(=O)N(C)[C@@H](Cc3ccccc3)C(=O)O)cc2cc1OC [compound 18, N^2-(6,7-dimethoxy-2-naphthylsulfonyl)-L-arginyl-N-methylphenylalanine] | 2 µM |
| COc1ccc2ccc(S(=O)(=O)N[C@@H](CCCNC(=N)N)C(=O)N(C)[C@@H](Cc3ccccc3)C(=O)O)cc2c1 [compound 20, N^2-(7-methoxy-2-naphthylsulfonyl)-L-arginyl-N-methyl-phenylalanine] | 2.5 µM |
| CCC[C@H](NC(=O)[C@H](CCCNC(=N)N)NS(=O)(=O)c1ccc2cc(OC)c(OC)cc2c1)C(=O)O [compound 21, N^2-(6,7-dimethoxy-2-naphthylsulfonyl)-L-arginylnorvaline] | 15 µM |
| COc1cc2ccc(S(=O)(=O)N[C@@H](CCCNC(=N)N)C(=O)N(Cc3ccccc3)[C@@H](C)C(=O)O)cc2cc1OC [compound 6, N^2-(6,7-dimethoxy-2-naphthylsulfonyl)-L-arginyl-N-benzylalanine] | 2.5 µM |
| COc1cc2ccc(S(=O)(=O)N[C@@H](CCCNC(=N)N)C(=O)N(CCc3ccccc3)[C@@H](C)C(=O)O)cc2cc1OC [compound 8, N^2-(6,7-dimethoxy-2-naphthylsulfonyl)-L-arginyl-N-phenethylalanine] | 1.5 µM |
| CCCCCN(C(=O)[C@H](CCCNC(=N)N)NS(=O)(=O)c1ccc2cc(OC)c(OC)cc2c1)[C@@H](C)C(=O)O [compound 4, N^2-(6,7-dimethoxy-2-naphthylsulfonyl)-L-arginyl-N-pentylalanine] | 2.0 µM |

System: mice
Assay: acute toxicity (LD50), intraperitoneal administration in mice
Type: in vivo
Conditions: mice (male, 20 g)
Description: Representative LD50 values, for example, for N^2 -(6,7-dimethoxy-2-naphthylsulfonyl)-L-arginyl-N-butylalanine and N^2 -(4,6-dimethoxy-2-naphthylsulfonyl)-L-arginyl-N-cyclohexylmethylalanine are above 1,500 milligrams per kilogram each.

| SMILES | acute toxicity values (LD50) |
| --- | --- |
| COc1ccc2cc(S(=O)(=O)N[C@@H](CCCNC(=N)N)C(=O)N(CC3CCCCC3)[C@@H](C)C(=O)O)cc(OC)c2c1 [compound 12, N^2-(4,6-dimethoxy-2-naphthylsulfonyl)-L-arginyl-N-cyclohexylmethylalanine] | above 1,500 milligrams per kilogram |
| CCCCN(C(=O)[C@H](CCCNC(=N)N)NS(=O)(=O)c1ccc2cc(OC)c(OC)cc2c1)[C@@H](C)C(=O)O [compound 2, N^2-(6,7-dimethoxy-2-naphthylsulfonyl)-L-arginyl-N-butylalanine] | above 1,500 milligrams per kilogram |
